The record followed here is patent EP3858336A1, “AMORPHOUS SOLID DISPERSION OF 8-CHLORO-N-(4-(TRIFLUOROMETHOXY)PHENYL)QUINOLIN-2-AMINE” (ABIVAX, priority 2020, dated 2021).

A word on the solubility: it is how much of the substance goes into solution per volume.

Data set [1] can be described thus: Two-step dissolution / precipitation Fasted Human in-vitro model (Fassif). The following applies: thermodynamic from solid, final pH = 6.5, 30min in FaSSGF pH1.2 + 120min in FaSSIF x2 pH6.5 / Sodium bicarbonate 90/10 v/v, 37°C, read-out: solubility (HPLC-UV dosage of supernatant), last measurement point. Type of data set: physicochemical. The procedure: (§1) ABX464 in its unique crystalline form and ABX464 :VA64 ASD (prepared according to example 1 above) were tested by using both Fasted and Fed Human in-vitro models (respectively named Fassif and Fessif models). These models simulate respectively fasted and fed state gastrointestinal fluids for dissolution testing.
For the Fasted in-vitro model, 11.4mg of ABX464:VA64 ASD (4.0mg equivalent ABX464) were weighed in 6 different vials. In all vials, 1ml of FaSSGF pH1.2 solution pre-heated at 37°C were added. Suspension were then vortexed at 37°C. After 15min vortex, suspension of the first vial was centrifuged 5min at 18000 rpm and filtered under 0.45µm filter (Millex LCR filter ref. SLCR0.13NK) for HPLC-UV dosage of supernatant. After 30min vortex, suspension of the second vial was centrifuged 5min at 18000 rpm and filtered under 0.45µm filter (Millex LCR filter ref. SLCR0.13NK) for HPLC-UV dosage of supernatant.
After 30min vortex, 1ml of FaSSIF x2 pH6.5 / Sodium bicarbonate 90/10 v/v pre-heated at 37°C was added on other 4 vials. Suspension were then vortexed at 37°C. After 15min vortex, suspension of the third vial was centrifuged 5min at 18000 rpm and filtered under 0.45µm filter (Millex LCR filter ref. SLCR0.13NK) for HPLC-UV dosage of supernatant. […]

Data set [2] is described as follows: Two-step dissolution / precipitation Fed Human in-vitro model (Fessif). Format: physicochemical. To be noted: thermodynamic from solid, final pH 5.0, 60min in FeSSGF pH3.0 + 120min in FeSSIF x3 pH5.0, 37°C, read-out: solubility (HPLC-UV dosage of supernatant), last measurement point. The procedure: as §1
For the Fed in-vitro model, 11.4mg of ABX464:VA64 ASD (4.0mg equivalent ABX464) were weighed in 7 different vials. In all vials, 1ml of FeSSGF pH3.0 solution pre-heated at 37°C were added. Suspension were then vortexed at 37°C. After 15min vortex, suspension of the first vial was centrifuged 5min at 18000 rpm and filtered under 0.45µm filter (Millex LCR filter ref. SLCR0.13NK) for HPLC-UV dosage of supernatant. After 30min vortex, suspension of the second vial was centrifuged 5min at 18000 rpm and filtered under 0.45µm filter (Millex LCR filter ref. SLCR0.13NK) for HPLC-UV dosage of supernatant. After 60min vortex, suspension of the third vial was centrifuged 5min at 18000 rpm and filtered under 0.45µm filter (Millex LCR filter ref. SLCR0.13NK) for HPLC-UV dosage of supernatant.
After 60min vortex, 0.5ml of FeSSIF x3 pH5.0 pre-heated at 37°C was added on other 4 vials. Suspension were then vortexed at 37°C. […]

Turning to `FC(F)(F)Oc1ccc(Nc2ccc3cccc(Cl)c3n2)cc1` [ABX464, 8-Chloro-N-(4-(trifluoromethoxy)phenyl)quinolin-2-amine], the solubility at 120 min worked out at 70 µg/mL in data set [1] and 508 µg/mL in data set [2].
